From patent US11952586B2, “B-cell cultivation method” (Hoffmann-La Roche Inc., priority 2017, dated 2024)

How the values were obtained:
[1] = tested on: single deposited B-cells; assay: co-cultivation of single deposited B-cells with EL-4 B5 feeder cells; IgG in supernatant by ELISA; assay type: cell-based, rabbit; details: for frequency per plate of rbIgG-positive wells: PMA 0.73 ng/ml; for average productivity/plate, IgG+ wells / frequency/plate rbIgG+: non-immunized animal
Description: Single cell sorted B-cells were cultured in 96-well plates with 200 μl/well EL-4 B5 medium with Pansorbin Cells (SAC) (Calbiochem (Merck), Darmstadt, Deutschland), EL-4 B5 cells (0-5×10^4/well) and rabbit thymocyte supernatant or cytokine mix, respectively, for 7 days at 37° C. in an atmosphere of 5% CO2 in the incubator. B-cell culture supernatants were removed for screening and the cells harvested immediately for variable region gene cloning or frozen at −80° C. in 100 μl RLT buffer (Qiagen, Hilden, Germany).
A mixture of 0.5 μg/ml of biotinylated mouse anti-rabbit IgG antibody (Sigma-Aldrich) and 0.35 μg/ml anti-rabbit IgG HRP conjugate (Sigma-Aldrich) was transferred to 384 well streptavidin coated microtiter plates (MicroCoat Biotechnologie GmbH). Dilutions of B-cell supernatants in PBS supplemented with 0.5% BSA and 0.05% Tween®-20 were added and incubated for 90 min at RT. After repeated washing (6×) with PBST (phosphate buffered saline with 0.2% Tween buffer the plates were developed with BM Blue® HRP substrate solution and color formation was measured by absorbance at 370 nm. A commercial rabbit IgG (Sigma-Aldrich) was used as a calibration standard.

[2] = tested on: EL-4 B5 cells; assay: vitality of irradiated EL-4 B5 cells in presence of PMA; assay type: cell-based, murine
From the text: Different PMA concentrations in combination with single deposited cells of a non-immunized animal have been tested.

[3] = PMA 0.57 ng/ml, 50 Gy, 50k/Well
[4] = PMA 1.3 ng/ml, 3 Gy, 15k/Well, HSA immunized rabbit
[5] = c(PMA) 0.015 ng/ml, 4 Gy EL-4 B5
[6] = c(PMA) 0.03 ng/ml, 4 Gy EL-4 B5
[7] = c(PMA) 0.03 ng/ml, 50 Gy EL-4 B5
[8] = c(PMA) 0.06 ng/ml, 4 Gy EL-4 B5
[9] = c(PMA) 0.125 ng/ml, 4 Gy EL-4 B5
[10] = c(PMA) 0.25 ng/ml, 4 Gy EL-4 B5
[11] = c(PMA) 0.25 ng/ml, 50 Gy EL-4 B5
[12] = c(PMA) 1.3 ng/ml, 50 Gy EL-4 B5

CCCCCCCCCCCCCC(=O)O[C@@H]1[C@@H](C)[C@@]2(O)[C@@H](C=C(CO)C[C@]3(O)C(=O)C(C)=C[C@@H]23)[C@@H]2C(C)(C)[C@]12OC(C)=O [PMA, phorbol-12-myristate-13-acetate]
IgG+ Frequency ([1]; PMA 0.57 ng/ml, 3 Gy, 15k/Well): 32.1 % total wells
Average IgG Productivity of all IgG+ wells ([1]; PMA 0.57 ng/ml, 4 Gy, 20k/Well): 5.834 µg/mL
IgG+ Frequency ([1]; PMA 0.57 ng/ml, 4 Gy, 20k/Well): 72.6 % total wells
Average IgG Productivity of all IgG+ wells ([1]; PMA 0.57 ng/ml, 5 Gy, 20k/Well): 5.269 µg/mL
IgG+ Frequency ([1]; PMA 0.57 ng/ml, 5 Gy, 20k/Well): 86.9 % total wells
Average IgG Productivity of all IgG+ wells ([1]; PMA 0.57 ng/ml, 8 Gy, 20k/Well): 5.72 µg/mL
IgG+ Frequency ([1]; PMA 0.57 ng/ml, 8 Gy, 20k/Well): 81 % total wells
Average IgG Productivity of all IgG+ wells [1, 3]: 4.876 µg/mL
IgG+ Frequency [1, 3]: 84.5 % total wells
frequency per plate of rbIgG-positive wells ([1]; 0.031x CM, 5,000 non-irradiated EL-4 B5 cells per well): 76.2 % total
frequency per plate of rbIgG-positive wells ([1]; 0.1x CM, 5,000 non-irradiated EL-4 B5 cells per well): 75.0 % total
frequency per plate of rbIgG-positive wells ([1]; 0.31x CM, 5,000 non-irradiated EL-4 B5 cells per well): 67.9 % total
frequency per plate of rbIgG-positive wells ([1]; 1x CM, 5,000 non-irradiated EL-4 B5 cells per well): 36.9 % total
frequency per plate of rbIgG-positive wells ([1]; 2x CM, 5,000 non-irradiated (0 Gy) EL-4 B5 cells per well): 48.8 % total
Average IgG Productivity of all IgG+ wells [1, 4]: 4.937 µg/mL
IgG+ Frequency [1, 4]: 8.3 % total wells
Average IgG Productivity of all IgG+ wells ([1]; PMA 1.3 ng/ml, 4 Gy, 20k/Well): 5.011 µg/mL
IgG+ Frequency ([1]; PMA 1.3 ng/ml, 4 Gy, 20k/Well): 72.6 % total wells
Average IgG Productivity of all IgG+ wells ([1]; PMA 1.3 ng/ml, 5 Gy, 20k/Well): 4.8 µg/mL
IgG+ Frequency ([1]; PMA 1.3 ng/ml, 5 Gy, 20k/Well): 84.5 % total wells
Average IgG Productivity of all IgG+ wells ([1]; PMA 1.3 ng/ml, 8 Gy, 20k/Well): 5.198 µg/mL
IgG+ Frequency ([1]; PMA 1.3 ng/ml, 8 Gy, 20k/Well): 88.1 % total wells
Average IgG Productivity of all IgG+ wells ([1]; PMA 1.3 ng/ml, 50 Gy, 50k/Well): 5.427 µg/mL
IgG+ Frequency ([1]; PMA 1.3 ng/ml, 50 Gy, 50k/Well): 83.3 % total wells
average productivity/plate, IgG+ wells [1, 5]: 3.90 µg/mL
frequency/plate rbIgG+ [1, 5]: 54.0 % total
average productivity/plate, IgG+ wells [1, 6]: 3.90 µg/mL
frequency/plate rbIgG+ [1, 6]: 55.6 % total
average productivity/plate, IgG+ wells [1, 7]: 1.36 µg/mL
frequency/plate rbIgG+ [1, 7]: 52.4 % total
average productivity/plate, IgG+ wells [1, 8]: 3.72 µg/mL
frequency/plate rbIgG+ [1, 8]: 57.5 % total
average productivity/plate, IgG+ wells [1, 9]: 3.78 µg/mL
frequency/plate rbIgG+ [1, 9]: 56.0 % total
average productivity/plate, IgG+ wells [1, 10]: 3.83 µg/mL
frequency/plate rbIgG+ [1, 10]: 64.3 % total
average productivity/plate, IgG+ wells [1, 11]: 2.48 µg/mL
frequency/plate rbIgG+ [1, 11]: 54.4 % total
average productivity/plate, IgG+ wells ([1]; c(PMA) 0.5 ng/ml, 4 Gy EL-4 B5): 4.06 µg/mL
frequency/plate rbIgG+ ([1]; c(PMA) 0.5 ng/ml, 4 Gy EL-4 B5): 57.5 % total
average productivity/plate, IgG+ wells ([1]; c(PMA) 1.3 ng/ml, 4 Gy EL-4 B5): 3.57 µg/mL
frequency/plate rbIgG+ ([1]; c(PMA) 1.3 ng/ml, 4 Gy EL-4 B5): 56.0 % total
average productivity/plate, IgG+ wells [1, 12]: 3.51 µg/mL
frequency/plate rbIgG+ [1, 12]: 58.7 % total
Vitality ([2]; c(PMA) 0.03 ng/ml, 4 Gy): 54.8%
Vitality ([2]; c(PMA) 0.03 ng/ml, 50 Gy): 3.9%
Vitality ([2]; c(PMA) 0.06 ng/ml, 4 Gy): 45.4%
Vitality ([2]; c(PMA) 0.125 ng/ml, 4 Gy): 39.8%
Vitality ([2]; c(PMA) 0.25 ng/ml, 4 Gy): 34%
Vitality ([2]; c(PMA) 0.25 ng/ml, 50 Gy): 9.5%
Vitality ([2]; c(PMA) 0.5 ng/ml, 4 Gy): 32.2%
Vitality ([2]; c(PMA) 1.3 ng/ml, 4 Gy): 19.2%
Vitality ([2]; c(PMA) 1.3 ng/ml, 50 Gy): 17.4%
